Results reported in article PMC10882974 (Environmental Science & Technology, 2024).
Entries after “also recorded” stand apart in the source; their conditions may differ. Counter-ions that a name gives are not always drawn.

Legend:
[1] = toxicokinetics experiment I: elimination after 1 h exposure; format: in vivo, Caenorhabditis elegans; details: whole organism (worm homogenate)
Description: (§1) In between cycles, the samples were kept on ice. […] Samples were stored at −20 °C until further analysis.
(§2) All parameters and units are summarized in SI A3.

C. elegans [2] = assay: as above; format: in vivo, Caenorhabditis elegans; details: after 1 h exposure; no E. coli
Description: as §1, §2

[3] = toxicokinetics experiment II: short-term uptake of different concentrations; format: in vivo, Caenorhabditis elegans; details: k2f elimination rate constant of fluoxetine (k2FLX,sum), exp II, no E. coli, 2 h
Description: as §1, §2

C. elegans [4] = assay: as above; format: in vivo, Caenorhabditis elegans; details: for BCF FLX (kinetic bioconcentration factor) / k1 uptake rate constant: exp II, no E. coli, 2 h
Description: as §1, §2

[5] = toxicokinetics experiment III: effect of E. coli on uptake; format: in vivo, Caenorhabditis elegans; details: 10 mg/L, k2f elimination rate constant of fluoxetine (k2FLX,sum), exp III, 10 h
Description: as §1, §2

C. elegans [6] = assay: as above; format: in vivo, Caenorhabditis elegans; details: for BCF FLX (kinetic bioconcentration factor) / kt transformation rate constant of fluoxetine to norfluoxetine: exp III, 10 h
Description: as §1, §2

[7] = toxicokinetics experiment IV: long-term exposure of L4 and adult worms; details: whole organism (worm homogenate), iv, exp IV, with E. coli, 48 h
Description: (§3) Three replicates of 1500 pooled C. elegans were used for each time point for each concentration. For experiments with E. coli, the OD600 was kept constant at 0.4.
(§4) C. elegans containing pellets were resuspended in 500 μL of methanol, and 0.6 g of […] ceramic beads (1.4 mm) were added to the vial. The samples were homogenized three times for 20 s using a Minilys homogenizer (Bertin Technologies) at middle speed. In between cycles, the samples were kept on ice. […] The supernatant was transferred to a glass tube, the pellet (including the ceramic beads) was resuspended in 500 μL of methanol, and the homogenization, sonication, and centrifugation cycle was repeated twice more to result in a three-step extraction. The total combined supernatant was concentrated to dryness under a gentle nitrogen stream and redissolved in 500 μL of methanol to a final concentration of the IS of 1 μM. Samples were stored at −20 °C until further analysis.
(§5) A one-compartment model was selected since chemical concentrations could only be measured for the whole organism. […] All parameters and units are summarized in SI A3.
(§6) The kinetic bioconcentration factor[33] was calculated with eq 3, and the ke and kt were only included when applicable to the respective experiment [drawing 4] 3
(§7) Model fitting was performed by adding the ordinary differential equations to the BYOM modeling package version 6.3 (http://www.debtox.info/byom.html) in Matlab R2022b.[34] […] Optimization was performed with the Melder–Mead Simplex Search method, minimizing the minus log-likelihood. […] Model script deviations from the BYOM model can be found in SI A9.

C. elegans [8] = assay: as above
Description: as §3, §4, §5, §6, §7

C. elegans [9] = assay: norfluoxetine uptake and coexposure with fluoxetine (SI A5); format: in vivo, Caenorhabditis elegans; details: fluoxetine 5 and 20 mg/L with norfluoxetine 20 mg/L
Description: Alternatively, there could be a concentration-dependent increase in metabolism over time resulting from enzyme induction. This was modeled with an extra metabolism rate constant ke that was included after 10 h (eq 1a and Figure 4C,D).

cyp35-a2 = cyp35-a2 gene expression (qRT-PCR); format: in vivo, Caenorhabditis elegans
Description: 1500 worms were collected in eppendorf tubes with 300 μL of RLT lysis buffer (Qiagen, Hilden, Germany) and homogenized using a Minilys homogenizer (Bertin Technologies) at middle speed four times for 20 s and kept on ice in between. Total RNA was isolated with the QIAshredder and RNeasy mini kits (Qiagen) according to the manufacturer’s protocol. The QuantiTect reverse transcription kit (Qiagen) was used for cDNA generation. RT-qPCR was performed on a Biorad CFX Opus 384 System using an iQ SYBR Green Supermix (Biorad) for amplification. The gene of interest was cyp35-a2, and cdc-42 was used as a housekeeping gene. Primers were generated by Biolegio (Nijmegen, The Netherlands); further details on the RT-qPCR and primers can be found in SI A7. Three biological replicates were used for each treatment.

[10] = test system: Gammarus pulex, Nile tilapia, and Japanese Medaka; details: cited from earlier work
[11] = test system: marine mussels, freshwater mussels, Daphnia magna; details: cited from earlier work
[12] = stability of fluoxetine in S medium; details: 10 mg/L, 20 °C, 0.5-24 h
Description: After 0.5, 1, 2, 5, 10, and 24 h at 20 °C, samples of spiked medium were stored at −80 °C until analysis. […] Therefore, two replicates of the samples were washed three times with M9 buffer, while the other two were just centrifuged once, and the entire supernatant was removed.
E. coli containing pellets were resuspended in 250 μL of methanol and frozen in liquid nitrogen and then left at room temperature to thaw, followed by 5 min of sonication in a sonication bath. The freeze–thawing and sonication were repeated twice more and after this, samples were centrifuged at 15,000g for 15 min. The supernatant was stored at −20 °C until analysis.
Separation was performed on a UHPLC system (Shimadzu) with a Kinetex 1.7 μm C18 100 A LC column (150 mm × 2.1 mm, Phenomenex).

[13] = combined experiments II, III, IV
[14] = with E. coli, 10 mg/L, k1, k2FLX, k2NF, kt constrained (eq 1b)
[15] = with E. coli, 10 mg/L, no constraint
[16] = exp IV, with E. coli, 0.5 mg/L, 48 h
[17] = exp IV, with E. coli, 20 mg/L, 48 h

## CNCCC(Oc1ccc(C(F)(F)F)cc1)c1ccccc1 (centres unmarked) [fluoxetine, Fluoxetine hydrochloride]
[1]; 1 h exposure (fluoxetine 0.5, 5, 20 mg/L; norfluoxetine 20 mg/L), then clean medium, no E. coli, read-out: k2sum elimination rate constant (+95% CI) (converted)
  k el: 0.000394 s⁻¹
[1]; 1 h exposure, then clean medium, slow phase after 1 h, no E. coli, read-out: k2slow elimination rate constant (+95% CI) (converted)
  k el: 0.000131 s⁻¹
[1]; calculated from k2sum and k2slow, read-out: k2fast elimination rate constant (converted)
  k el: 0.000264 s⁻¹
C. elegans [2]
  elimination over time after transfer to clean medium: almost all fluoxetine was eliminated after 6 h
[3]; whole organism (homogenate of pooled worms), 5 mg/L, k2FLX constrained (value of experiment I)
  k el: 0.000394 s⁻¹
[3]; whole organism (homogenate of pooled worms), 5 mg/L, no constraint
  k el: 0.000333 s⁻¹
[3]; whole organism (homogenate of pooled worms), 20 mg/L, k2FLX constrained (value of experiment I)
  k el: 0.000394 s⁻¹
[3]; whole organism (homogenate of pooled worms), 20 mg/L, no constraint
  k el: 0.000778 s⁻¹
[3]; whole organism (worm homogenate), 0.5 mg/L, k2FLX constrained (value of experiment I)
  k el: 0.000394 s⁻¹
[3]; whole organism (worm homogenate), 0.5 mg/L, no constraint
  k el: 0.000981 s⁻¹
C. elegans [4]; [13]
  BCF versus exposure concentration: BCF: negatively correlated
  k1 versus exposure concentration: k1: negatively correlated
C. elegans [4]; 0.5 mg/L, k2FLX constrained
  BCF FLX (kinetic bioconcentration factor): 15.85
  k1 uptake rate constant: 22.5 L/(kgnem h)
C. elegans [4]; 0.5 mg/L, no constraint
  BCF FLX (kinetic bioconcentration factor): 13.06
  k1 uptake rate constant: 46.1 L/(kgnem h)
C. elegans [4]; 5 mg/L, k2FLX constrained
  BCF FLX (kinetic bioconcentration factor): 7.18
  k1 uptake rate constant: 10.2 L/(kgnem h)
C. elegans [4]; 5 mg/L, no constraint
  BCF FLX (kinetic bioconcentration factor): 7.66
  k1 uptake rate constant: 9.19 L/(kgnem h)
C. elegans [4]; 20 mg/L, k2FLX constrained
  BCF FLX (kinetic bioconcentration factor): 3.20
  k1 uptake rate constant: 4.54 L/(kgnem h)
C. elegans [4]; 20 mg/L, no constraint
  BCF FLX (kinetic bioconcentration factor): 2.71
  k1 uptake rate constant: 7.58 L/(kgnem h)
[5]; whole organism (homogenate of pooled worms), no E. coli
  k el: 0.000461 s⁻¹
[5]; whole organism (worm homogenate), with E. coli, k1, k2FLX, k2NF, kt constrained (eq 1b)
  k el: 0.000461 s⁻¹
[5]; whole organism (worm homogenate), with E. coli, no constraint
  k el: 0.000111 s⁻¹
C. elegans [6]; Figure 4
  time to reach peak internal fluoxetine concentrations: 2 to 5 h
C. elegans [6]; Figure 5
  effect of presence of bacteria on k2FLX,sum: decreased to around half
C. elegans [6]; no E. coli, 10 mg/L
  BCF FLX (kinetic bioconcentration factor): 8.19
  kt transformation rate constant of fluoxetine to norfluoxetine: 0.05 h⁻¹
C. elegans [6]; [14]
  BCF FLX (kinetic bioconcentration factor): 8.19
  kt transformation rate constant of fluoxetine to norfluoxetine: 0.05 h⁻¹
C. elegans [6]; [15]
  BCF FLX (kinetic bioconcentration factor): 20.67
  kt transformation rate constant of fluoxetine to norfluoxetine: 0.065 h⁻¹
C. elegans [6]; experiment III, 10 mg/L
  effect of presence of bacteria on internal concentration of fluoxetine: almost doubled
C. elegans [6]; in vivo
  BCF versus presence of E. coli: BCF: positively correlated
  k2 versus presence of E. coli: k2: negatively correlated
[7]; 0.5 mg/L, k2f elimination rate constant of fluoxetine (k2FLX,sum)
  k el: 0.000336 s⁻¹
[7]; 0.5 mg/L, ke extra metabolism rate constant after 10 h, 0.5 mg/L
  k el: 1.42e-05 s⁻¹
[7]; 20 mg/L, k2f elimination rate constant of fluoxetine (k2FLX,sum)
  k el: 0.000233 s⁻¹
[7]; 20 mg/L, ke extra metabolism rate constant after 10 h, 20 mg/L
  k el: 0.000144 s⁻¹
C. elegans [8]; 0.5 and 20 mg/L, 48 h
  steady-state concentrations, L4 versus adult C. elegans (life stage): did not show significant differences; also recorded: tested, but no effect (L4 vs adult)
C. elegans [8]; E. coli related, modeled with eq 1b
  IR (ingestion rate) versus (toxic) effect on feeding: IR (ingestion rate): negatively correlated–neurotoxic effect
C. elegans [8]; adding extra ke parameter over time
  k2 versus CYP P450 induction (linked to exposure time): k2: positively correlated (adding extra ke parameter over time)
C. elegans [8]; [16]
  BCF FLX (kinetic bioconcentration factor): 24.66
  k1 uptake rate constant: 31.1 L/(kgnem h)
C. elegans [8]; [17]
  BCF FLX (kinetic bioconcentration factor): 6.36
  k1 uptake rate constant: 9.01 L/(kgnem h)
  kt transformation rate constant of fluoxetine to norfluoxetine: 0.056 h⁻¹
C. elegans [9]
  effect of coexposure with norfluoxetine on internal fluoxetine concentrations: no significant differences; also recorded: tested, but no effect
cyp35-a2; 0.5 mg/L fluoxetine
  increase in CYP gene expression (cyp35-a2) over time: not observed
cyp35-a2; 20 mg/L fluoxetine, observed for 24 h, not yet for 10 h
  CYP gene expression (cyp35-a2) over time: increase in CYP gene expression over time
[10]
  k2 elimination rate: 0.0008 to 0.08 h⁻¹
[11]
  BCF values in other species: 100 to 10,000
[12]
  concentration of fluoxetine in S medium without C. elegans over time: constant over time
